Experimental data: ChEMBL document CHEMBL4196099, “Factor XIa Inhibitors as New Anticoagulants” (J Med Chem, 2018)

Columns and labels:
Coagulation factor XI [1] = target: T1, Coagulation factor XI (Homo sapiens, UniProt P03951); test: Inhibition of human factor 11a incubated for 60 mins by Cheng-Prusoff equation analysis
Coagulation factor XI [2] = target: T1, Coagulation factor XI; test: Inhibition of human factor 11a assessed as reduction in para-nitroanilide releasee using pyroGlu-Pro-Arg-pNA.HCl substrate by chromogenic assay
Oryctolagus cuniculus [3] = organism: Oryctolagus cuniculus; test: Antithrombotic activity in rabbit model of electrolytic-mediated carotid arterial thrombosis; assay type: functional
Trypsin = Trypsin (Homo sapiens, UniProt P07477+P07478+P35030); test: Inhibition of trypsin (unknown origin) using Chromozyme-TRY substrate incubated for 3 mins by spectrophotometry; assay type: protein assay
Oryctolagus cuniculus [4] = organism: Oryctolagus cuniculus; test: Antithrombotic activity in rabbit model of venous thrombosis; assay type: functional
Oryctolagus cuniculus [5] = organism: Oryctolagus cuniculus; test: Antithrombotic activity in rabbit model of arteriovenous-shunt thrombosis; assay type: functional
Tryptase = Tryptase (Homo sapiens, UniProt Q9BZJ3+Q15661+Q9NRR2); test: Inhibition of human lung tryptase using Z-glypro-arg-AMC incubated for 3 mins by spectrophotometry; assay type: protein assay
[6] = Terminal half life in healthy human following administration of 2 hrs and 5 day continuous iv infusion; assay type: ADME, organism-based; conditions: in vivo, read-out: beta t1/2

T1 sequence (P03951 19-387 limits assumed): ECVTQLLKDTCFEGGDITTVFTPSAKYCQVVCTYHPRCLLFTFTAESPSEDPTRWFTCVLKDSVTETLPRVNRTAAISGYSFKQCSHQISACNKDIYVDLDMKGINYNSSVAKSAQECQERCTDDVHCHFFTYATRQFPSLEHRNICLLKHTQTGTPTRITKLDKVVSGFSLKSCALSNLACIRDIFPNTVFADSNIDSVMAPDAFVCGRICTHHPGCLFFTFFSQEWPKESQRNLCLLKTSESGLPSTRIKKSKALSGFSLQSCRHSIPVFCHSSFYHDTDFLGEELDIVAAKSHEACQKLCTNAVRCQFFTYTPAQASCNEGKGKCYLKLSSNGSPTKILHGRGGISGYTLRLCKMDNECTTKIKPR
T1 sequence (P03951 388-625 limits assumed): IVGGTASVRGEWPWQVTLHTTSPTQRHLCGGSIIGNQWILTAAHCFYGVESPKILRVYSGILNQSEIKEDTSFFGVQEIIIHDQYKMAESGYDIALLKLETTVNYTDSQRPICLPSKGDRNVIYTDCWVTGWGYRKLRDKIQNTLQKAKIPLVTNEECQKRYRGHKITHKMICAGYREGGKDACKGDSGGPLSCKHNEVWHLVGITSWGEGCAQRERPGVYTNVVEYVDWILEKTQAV

Compound: COC(=O)Nc1ccc2c(c1)NC(=O)CCCC[C@H](NC(=O)[C@H]1CC[C@H](CN)CC1)c1nc-2c[nH]1
- Ki (Coagulation factor XI [1]): 0.0003 µM

Compound: CNC(=O)[C@H](Cc1ccccc1)NC(=O)c1ccc2[nH]c(=O)cc(O)c2c1
- Kd (Coagulation factor XI [2]): 1400 µM

Compound: CC(C)(C)NC(=O)N1CCN(C(=O)N2C(=O)[C@H](CCCN=C(N)N)[C@H]2C(=O)O)CC1
- ED50 (Oryctolagus cuniculus [3]): 1.5 mg/kg/h
- IC50 (Trypsin): 0.05 µM
- ED50 (Oryctolagus cuniculus [4]): 0.7 mg/kg/h
- ED50 (Oryctolagus cuniculus [5]): 0.4 mg/kg/h
- IC50 (Tryptase): 0.005 µM

Compound: CN1CCN(c2cccc3c2CCN(C(=O)/C=C/c2c(-n4cnnn4)ccc(Cl)c2F)[C@@H]3C(=O)Nc2ccc(C(=O)O)cc2)C(=O)C1 [BMS-962212]
- half-life [6]: 6 to 9 h
